This is an account of results in US8957103B2, “Conjugated 3-(indolyl)- and 3-(azaindolyl)-4-arylmaleimide compounds and their use in tumor treatment” (Johannes Gutenberg—Universitat Mainz, priority 2010, dated 2015).

The structures appear in SMILES notation.

The test system of data set [1] is HT-29 human colon adenocarcinoma cells. Briefly: MTT assay, antiproliferative effect. It counts as cell-based. Particulars: HT-29, 72 h, 3 days, read-out: Viability of HT-29 cells as determined by MTT assay. How it is done:
Evaluation of Antiproliferative Effect (MTT Assay)
The antiproliferative activity of test compounds was determined by the 3-(4,5-dimethylthiazol-2-yl)-2,5-diphenyltetrazolium bromide (MTT) assay as described previously (Mosmann, T. et al. (1983) J. Immunol. Methods 65: 55-63). Cells in the exponential growth phase were transferred to 96-well flat-bottomed plates. 10,000 viable cells contained in 200 μl cell suspension were plated into each well and incubated over night. Cells were then exposed to various concentrations of test compounds (100 μl/well) for 3 days at 37° C. with 5% CO2. Subsequently, 10 μl/well MTT stock solution (5 mg/ml; Biomol, Germany) were added and the cells were incubated at 37° C. with 5% CO2 for 4 hours. 100 μl solubilization solution (10% SDS in 0.01 M HCl) were added and the cells were incubated at 37° C. with 5% CO2 over night. Plates were read on an ELISA-Reader ELX 800 (BIO-TEK Software KC 4) at 562 nm absorbance. Each experiment was done in triplicate.
(§1) Working solutions of 26 mM test compound in DMSO were prepared and stored in aliquots at −20° C. A 29.6 mM stock solution of irinotecan in water was prepared and stored in aliquots at 4° C. The drugs were diluted in culture medium immediately before use to obtain the desired concentrations.
(§2) The human colon cancer cell line HT-29 was obtained from the DSMZ, Germany. […] cells were cultured in RPMI 1640 supplemented with 10% FCS at 37° C. and 5% CO2.
The antitumor activity of test compounds was examined against HT-29 human colon adenocarcinoma cells using MTT assay (method described above).
On the technique in general: Tetrazolium dyes change colour on reduction, which living cells bring about.

A further data set has as its target FLT-3 (Homo sapiens (Human), UniProt P36888). Kind of data set: FLT-3 kinase assay (Millipore IC50Profiler). Type of data set: biochemical. How it is done: (§3) GSK-3β, VEGFR-2, FLT-3, Kinase Assays
(§4) The effect of test compounds on the activity of the protein kinases GSK-3β, VEGFR-2 and FLT-3 was evaluated based on half maximal inhibitory concentration (IC50) values determined by Millipore UK Ltd; Gemini Crescent; Dundee Technology Park; Dundee DD2 1SW; UK (IC50Profiler). Detailed protocols can be found at: www.millipore.com/drugdiscovery/dd3/assayprotocols.
(§5) The inhibitory effect of test compounds on protein kinases VEGFR-2, FLT-3 and GSK-3β was investigated using respective kinase inhibition assays (method described above) and the values of half maximal inhibitory concentration (IC50) were determined from the assay results. […] Thus, compounds with selective kinase profiles were identified, which may allow application specific for a certain tumor or condition while showing less side-effects caused by activity against other kinases.

The test system of another data set is HT-29 cells. Briefly: Nicoletti apoptosis assay by cell cycle analysis (sub-G1 fraction). It counts as cell-based, human. The note with it: 7 days. Here is the method: Nicoletti Apoptosis Assay by Cell Cycle Analysis
Cancer cells were transferred to 12-well flat-bottomed plates. 1.5×10^5 viable cells contained in 1 ml cell suspension were plated into each well and incubated over night before exposure with various concentrations of drugs. Subsequently, cells were incubated in 1 ml medium containing various concentrations of test compounds at 37° C. with 5% CO2. After incubation the cells were washed with PBS, trypsinized, pelleted and mixed with PI buffer (containing 0.1% sodium citrate, 0.1% triton X-100, […] propidium iodide (PI)) and incubated for 1 hour at 4° C. Cell cycle sub-G1 fraction analysis was performed as described previously (Nicoletti, I. et al. (1991) J. Immunol. Methods 139: 271-279) using a flow cytometer (BD FACS Calibur™, BD Biosciences, Heidelberg, Germany). Each experiment was done in triplicate.
as §1, §2
Compounds of the invention (test compounds) and the topoisomerase I inhibitor irinotecan were analyzed for their individual and combined effect in apoptosis assay (method described above). Induction of apoptosis was determined by cell cycle analysis (% sub-G1 fraction) after incubating HT-29 cells with test compounds, irinotecan or combinations thereof, respectively, for 7 days.

Another data set deals with VEGFR-2 (Homo sapiens (Human), UniProt P35968). Kind of data set: VEGFR-2 kinase assay (Millipore IC50Profiler). It counts as biochemical.
VEGFR-2, sequence (P35968 20-1356): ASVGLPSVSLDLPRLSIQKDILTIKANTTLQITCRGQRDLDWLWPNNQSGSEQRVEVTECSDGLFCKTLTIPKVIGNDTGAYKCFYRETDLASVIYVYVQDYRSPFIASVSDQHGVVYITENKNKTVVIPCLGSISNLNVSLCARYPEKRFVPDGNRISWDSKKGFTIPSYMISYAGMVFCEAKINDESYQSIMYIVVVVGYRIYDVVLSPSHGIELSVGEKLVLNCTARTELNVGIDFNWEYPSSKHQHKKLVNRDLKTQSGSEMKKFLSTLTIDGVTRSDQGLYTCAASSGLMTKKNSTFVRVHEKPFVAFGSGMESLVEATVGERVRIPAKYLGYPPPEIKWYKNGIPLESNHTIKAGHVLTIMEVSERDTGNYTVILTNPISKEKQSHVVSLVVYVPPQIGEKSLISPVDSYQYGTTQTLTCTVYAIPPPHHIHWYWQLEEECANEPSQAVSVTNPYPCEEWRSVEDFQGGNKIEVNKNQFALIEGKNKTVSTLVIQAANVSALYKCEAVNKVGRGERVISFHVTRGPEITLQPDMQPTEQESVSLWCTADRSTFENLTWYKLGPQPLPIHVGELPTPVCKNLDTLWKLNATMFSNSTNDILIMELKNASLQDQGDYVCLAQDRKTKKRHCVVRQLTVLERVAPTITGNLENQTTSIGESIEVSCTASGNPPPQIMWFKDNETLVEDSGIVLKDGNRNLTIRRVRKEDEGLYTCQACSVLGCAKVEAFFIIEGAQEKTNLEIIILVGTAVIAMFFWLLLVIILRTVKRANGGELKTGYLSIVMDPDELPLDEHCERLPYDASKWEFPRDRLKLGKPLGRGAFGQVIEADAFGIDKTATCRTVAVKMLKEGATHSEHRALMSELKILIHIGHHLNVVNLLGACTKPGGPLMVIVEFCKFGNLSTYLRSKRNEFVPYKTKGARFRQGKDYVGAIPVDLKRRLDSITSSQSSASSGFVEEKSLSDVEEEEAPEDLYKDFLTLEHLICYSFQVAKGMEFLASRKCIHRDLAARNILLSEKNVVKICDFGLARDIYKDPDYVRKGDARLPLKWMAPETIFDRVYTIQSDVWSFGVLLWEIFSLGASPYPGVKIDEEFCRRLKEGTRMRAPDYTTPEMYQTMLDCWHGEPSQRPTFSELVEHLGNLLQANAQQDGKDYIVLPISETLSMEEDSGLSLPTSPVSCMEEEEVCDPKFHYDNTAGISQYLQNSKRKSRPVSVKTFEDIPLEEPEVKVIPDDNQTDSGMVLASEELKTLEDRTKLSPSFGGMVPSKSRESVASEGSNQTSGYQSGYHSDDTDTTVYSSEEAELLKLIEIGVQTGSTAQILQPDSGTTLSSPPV
From the text: as §3
Detailed protocols can be found at: www.millipore.com/drugdiscovery/dd3/assayprotocols.

A further data set concerns the target GSK-3β (Homo sapiens (Human), UniProt P49841). Kind of data set: GSK-3β kinase assay (Millipore IC50Profiler). It counts as biochemical. How it is done:
as §3, §4, §5

The nature of data set [2]: In vitro hepatic microsome stability. Particulars: rat liver microsomes in Tris buffer. It counts as in vitro ADME. How it is done: Metabolic conversion was evaluated by incubating compounds of the invention (test compounds) with rat liver microsomes (BD Biosciences) in Tris buffer.
For orientation: Microsomes from liver hold many membrane-bound enzymes, among them those of drug oxidation.

Where [3] appears, read: 8 μM test compound plus 1.18 μM irinotecan.

GSK-3β, sequence (P49841 whole entry): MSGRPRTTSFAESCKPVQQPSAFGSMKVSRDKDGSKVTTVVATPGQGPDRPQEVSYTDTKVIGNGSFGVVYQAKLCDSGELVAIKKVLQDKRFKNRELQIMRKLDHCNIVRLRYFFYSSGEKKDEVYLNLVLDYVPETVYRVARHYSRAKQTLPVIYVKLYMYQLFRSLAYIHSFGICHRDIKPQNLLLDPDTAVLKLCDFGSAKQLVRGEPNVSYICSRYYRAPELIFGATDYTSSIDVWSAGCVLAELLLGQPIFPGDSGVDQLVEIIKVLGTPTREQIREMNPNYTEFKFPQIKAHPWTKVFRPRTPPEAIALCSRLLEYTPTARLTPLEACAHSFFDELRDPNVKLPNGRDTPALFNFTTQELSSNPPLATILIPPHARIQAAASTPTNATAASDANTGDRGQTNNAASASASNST
FLT-3, sequence (P36888 27-993): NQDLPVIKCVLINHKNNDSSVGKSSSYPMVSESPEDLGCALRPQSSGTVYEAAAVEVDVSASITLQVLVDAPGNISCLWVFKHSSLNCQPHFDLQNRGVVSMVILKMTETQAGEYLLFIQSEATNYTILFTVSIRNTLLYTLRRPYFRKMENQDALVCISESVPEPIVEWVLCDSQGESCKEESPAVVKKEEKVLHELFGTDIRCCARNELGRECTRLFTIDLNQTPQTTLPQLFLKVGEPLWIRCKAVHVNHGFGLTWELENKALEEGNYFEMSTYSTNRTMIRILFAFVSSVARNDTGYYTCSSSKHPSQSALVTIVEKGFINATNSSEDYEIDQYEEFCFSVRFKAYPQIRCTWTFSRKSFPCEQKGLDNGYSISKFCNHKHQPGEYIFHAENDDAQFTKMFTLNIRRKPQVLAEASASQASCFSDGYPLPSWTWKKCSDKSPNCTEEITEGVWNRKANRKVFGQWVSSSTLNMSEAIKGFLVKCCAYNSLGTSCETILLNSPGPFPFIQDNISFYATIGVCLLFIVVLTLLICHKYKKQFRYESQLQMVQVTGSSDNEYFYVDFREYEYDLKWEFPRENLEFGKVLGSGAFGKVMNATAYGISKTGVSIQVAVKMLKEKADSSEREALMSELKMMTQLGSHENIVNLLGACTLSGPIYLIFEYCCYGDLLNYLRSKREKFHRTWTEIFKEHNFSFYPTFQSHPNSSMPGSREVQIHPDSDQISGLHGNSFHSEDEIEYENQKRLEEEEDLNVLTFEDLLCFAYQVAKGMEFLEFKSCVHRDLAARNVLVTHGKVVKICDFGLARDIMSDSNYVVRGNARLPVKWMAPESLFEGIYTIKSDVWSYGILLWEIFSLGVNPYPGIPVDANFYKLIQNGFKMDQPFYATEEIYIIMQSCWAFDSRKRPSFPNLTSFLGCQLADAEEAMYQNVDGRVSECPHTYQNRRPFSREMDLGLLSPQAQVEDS

Consider `COc1cc(C2=C(c3cn(CCCNC(=O)C(N)CC(C)C)c4ccccc34)C(=O)NC2=O)cc(OC)c1OC` (stereo not shown) [Compound A, 2-Amino-N-(3-(3-(2,5-dioxo-4-(3,4,5-trimethoxyphenyl)-2,5-dihydro-1H-pyrrol-3-yl)-1H-indol-1-yl)propyl)-4-methylpentanamide], for which, in data set [1], the viability (usually a read-out of living cells in per cent, often relative to untreated cells) at 1 µM stood at 94.9 ± 4.6%; the viability at 10 µM was found to be 68.7 ± 0.9%; the viability at 20 µM was determined as 59.2 ± 5.4%; the viability at 50 µM turned out to be 26 ± 8.9%. Further, the IC50 – broadly, the midpoint of a concentration-inhibition curve – against FLT-3 was no less than 1000 nM. In the data set with HT-29 cells (8 μM test compound only), the “Sub-G1 Fraction” value amounted to 7.4 ± 0.5%. Besides, in the data set with HT-29 cells (setting [3]), the “Sub-G1 Fraction” value is reported as 38.9 ± 2.8%. The compound further registered an IC50 on VEGFR-2 of no less than 1000 nM. In addition, the IC50 against GSK-3β was found to be 208 nM.

In the case of `COc1cc(C2=C(c3cn(CCCO)c4ccccc34)C(=O)NC2=O)cc(OC)c1OC` [Compound C1, 3-(1-(3-hydroxypropyl)indol-3-yl)-4-(3,4,5-trimethoxyphenyl)-1H-pyrrole-2,5-dione], the IC50 against FLT-3 stood at 556 nM; against GSK-3β, 2250 nM. In addition, the “Metabolic conversion (degradation, metabolite formed)” value (“Metabolic conversion” for short) in data set [2] is “gave its metabolite Z1”.

With `COc1cc(C2=C(c3cn(CCCOC(=O)C(N)CC(C)C)c4ccccc34)C(=O)NC2=O)cc(OC)c1OC` (stereo not shown) [Compound C, 3-(3-(2,5-Dioxo-4-(3,4,5-trimethoxyphenyl)-2,5-dihydro-1H-pyrrol-3-yl)-1H-indol-1-yl)propyl 2-amino-4-methylpentanoate], in data set [1], the viability at 1 µM turned out to be 96.7 ± 3.3%. Besides, the viability at 10 µM in data set [1] was 49.3 ± 1.1%. The viability at 20 µM in data set [1] was determined as 51 ± 2.3%. Further, the IC50 against FLT-3 is 480 nM; against VEGFR-2 it was no less than 1000 nM; against GSK-3β, 134 nM. Further, the “Sub-G1 Fraction” value in the data set with HT-29 cells (8 μM test compound only) came to 6.6 ± 0.4%; in the data set on HT-29 cells (setting [3]), 39.2 ± 0.7%. Also, the “Metabolic conversion” value in data set [2] is recorded as “time dependent degradation”.

On to `COc1cc(C2=C(c3cn(CCCO)c4ccccc34)C(=O)NC2=O)cc(OC)c1OC` [Compound D1, 3-(1-(3-hydroxypropyl)indol-3-yl)-4-(3,4,5-trimethoxyphenyl)-1H-pyrrole-2,5-dione], for which, in data set [2], the “Metabolic conversion” value is given as “upon further degradation gave compound Z1”.

Take `COc1cc(C2=C(c3cn(CCOC(=O)C(N)CC(C)C)c4ccccc34)C(=O)NC2=O)cc(OC)c1OC` (stereo not shown) [Compound D, 2-(3-(2,5-Dioxo-4-(3,4,5-trimethoxyphenyl)-2,5-dihydro-1H-pyrrol-3-yl)-1H-indol-1-yl)ethyl 2-amino-4-methylpentanoate]: in data set [1], the viability at 1 µM came to 104 ± 6.4%, the viability at 10 µM was determined as 99.4 ± 8.3%, the viability at 20 µM worked out at 94.5 ± 8.3% and the viability at 50 µM came out at 65.3 ± 3.3%. On FLT-3, this compound registered an IC50 of 239 nM. In addition, in the data set with HT-29 cells (8 μM test compound only), the “Sub-G1 Fraction” value stood at 6.2 ± 0.8%. Besides, the “Sub-G1 Fraction” value with HT-29 cells (setting [3]) turned out to be 44.5 ± 1.5%. The “Metabolic conversion” value in data set [2] is given as “yield metabolite D1”. Half-maximal inhibition at VEGFR-2 (IC50) required 251 nM. On GSK-3β, this compound showed an IC50 of 12 nM.

For `COc1cc(C2=C(c3c[nH]c4ccccc34)C(=O)NC2=O)cc(OC)c1OC` [Compound Z1, 3-(1-H-indol-3-yl)-4-(3,4,5-trimethoxyphenyl)-1H-pyrrole-2,5-dione], the IC50 at FLT-3 is 270 nM; on VEGFR-2, 90 nM; against GSK-3β, greater than 1000 nM. The “Metabolic conversion” value in data set [2] is “metabolized to form metabolite Z2”.

On to `CCc1c2c(nc3ccc(OC(=O)N4CCC(N5CCCCC5)CC4)cc13)-c1cc3c(c(=O)n1C2)COC(=O)[C@]3(O)CC` [irinotecan, reference compound], for which, in the data set on HT-29 cells (1.18 μM irinotecan only), the “Sub-G1 Fraction” value was 26.1 ± 2.1%.
